Test results published in publication PMC5760633, “Determining direct binders of the Androgen Receptor using a high-throughput Cellular Thermal Shift Assay” (Scientific Reports, 2018).
Changes are numbered by the printed parent chain. Where two headings read alike, the source gives them in different places.

How the values were obtained:
Androgen Receptor (AR) [1] = target: T1, Androgen Receptor (AR) (Homo sapiens, UniProt P10275, H875Y); experiment: CETSA HT ITDRF at 46 °C, agonist mode (no exogenous DHT), CWR22Pc-R1-AD1 cells; assay type: binding; settings: for compound incubation time at which AR thermal stabilisation is seen: time-course
T1 construct: exclusively expresses a structurally full-length AR containing a H874Y mutation; endogenous in cells; host or cells: CWR22Pc-R1-AD1
T1 sequence (P10275 1-920 H875Y): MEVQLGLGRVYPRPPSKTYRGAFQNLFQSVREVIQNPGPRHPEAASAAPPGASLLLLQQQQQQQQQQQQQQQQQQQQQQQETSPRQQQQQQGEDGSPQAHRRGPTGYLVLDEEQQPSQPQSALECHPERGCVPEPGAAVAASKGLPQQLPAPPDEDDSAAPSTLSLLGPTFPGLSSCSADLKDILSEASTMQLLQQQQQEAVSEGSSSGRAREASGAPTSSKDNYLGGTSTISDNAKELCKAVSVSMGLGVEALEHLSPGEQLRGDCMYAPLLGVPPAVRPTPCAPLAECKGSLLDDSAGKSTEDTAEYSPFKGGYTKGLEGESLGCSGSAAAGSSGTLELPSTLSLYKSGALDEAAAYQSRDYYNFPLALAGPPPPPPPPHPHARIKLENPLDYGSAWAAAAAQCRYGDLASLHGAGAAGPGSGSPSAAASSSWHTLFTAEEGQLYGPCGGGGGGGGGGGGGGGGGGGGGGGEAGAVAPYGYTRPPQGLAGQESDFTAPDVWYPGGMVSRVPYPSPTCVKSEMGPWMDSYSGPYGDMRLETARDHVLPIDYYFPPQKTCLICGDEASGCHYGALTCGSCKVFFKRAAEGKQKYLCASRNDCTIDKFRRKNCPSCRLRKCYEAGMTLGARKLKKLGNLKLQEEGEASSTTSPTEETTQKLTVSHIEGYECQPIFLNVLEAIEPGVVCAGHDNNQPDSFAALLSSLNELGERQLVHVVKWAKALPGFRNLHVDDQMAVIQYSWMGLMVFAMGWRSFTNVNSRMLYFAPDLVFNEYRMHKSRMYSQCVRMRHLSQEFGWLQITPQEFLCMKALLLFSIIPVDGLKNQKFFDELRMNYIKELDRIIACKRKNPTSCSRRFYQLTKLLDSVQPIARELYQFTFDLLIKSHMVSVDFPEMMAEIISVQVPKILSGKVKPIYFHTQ

Androgen Receptor (AR) [2] = target: T2, Androgen Receptor (AR) (Homo sapiens, UniProt P10275, T878A); experiment: CETSA HT ITDRF at 46 °C, agonist mode, LNCaP cells; assay type: binding
T2 construct: an alternative AR-positive prostate cancer cell line, LNCaP; endogenous in cells; host or cells: LNCaP
T2 sequence (P10275 1-920 T878A): T1 sequence (P10275 1-920 H875Y) with Y875H, T878A

Androgen Receptor (AR) [3] = target: T1, Androgen Receptor (AR); experiment: CETSA HT ITDRF at 46 °C, antagonist mode in the presence of 1 nM DHT, CWR22Pc-R1-AD1 cells; assay type: binding; settings: for AR target engagement (CETSA HT), 2 h, IC50: CWR22Pc-R1-AD1 cells
Experimental: [sequence] experiments were performed in a plate-based, automation-compatible assay setup, as described in Supplementary Fig. S2e. […] Internal standard controls were included on each plate (Supplementary Fig. S10). […] 10 µL of cells were seeded per well of the PCR plate using a Multidrop Combi dispensor, covered with a plate lid, briefly centrifuged, and incubated under standard tissue culture conditions for 2 h or indicated timepoint. […] Cells were lysed by addition of 10 µL/well 2x SureFire Lysis Buffer using a Multidrop Combi. […] Antibody and AlphaScreen reagent, prepared as above, were added by Multidrop Combi (6 µL/well). Plates were incubated in the dark 16 h and analysed using an EnVision platereader.

[4] = tested on: AR-driven transcription (ARE-Luciferase); experiment: AR-driven transcription ARE Luciferase reporter assay in CWR22Pc-R1-AD1 cells; assay type: cell-based, human;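 note: cells stably carrying an ARE-driven firefly luciferase reporter, with luminescence as read-out, tested in phenol red free RPMI containing 10% charcoal stripped FBS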
Experimental: 15 µL 2x Steady-Glo® reagent (Promega) was added per well and incubated 15 min in the dark before reading luminescence using an EnVision platereader. Experiments were performed in phenol red free RPMI media supplemented with 10% charcoal stripped FBS.

total cellular AR = experiment: CETSA HT control without heat shock and without exogenous DHT (total AR); assay type: cell-based, human
[5] = Supplementary Table S1, 2 h, 46 °C
[6] = Homo sapiens, 24 h; read-out: AR-driven transcription (ARE-Luciferase), 24 h, IC50
[7] = Homo sapiens, 24 h; read-out: ARE-Luciferase response pIC50 (converted)
[8] = Supplementary Table S1; 24 h, 1 nM DHT
[9] = 2 h compound incubation, no exogenous DHT, no 46 °C heat shock
[10] = AR target engagement (CETSA HT), 2 h, IC50, CWR22Pc-R1-AD1 cells, 1 nM DHT, 46 °C heat shock
[11] = CWR22Pc-R1-AD1 cells, 1 nM DHT, 24 h; read-out: AR-driven transcription (ARE-Luciferase), 24 h, IC50
[12] = 1 nM DHT, 2 h, 46 °C heat shock
[13] = Supplementary Table S1, 1 nM DHT, 2 h, 46 °C, one technical repeat, read-out: CETSA HT response pIC50 (converted)

Row | SMILES | Conclusion: activity in CETSA HT (Androgen Receptor (AR) [3]; [5]) | IC50 [4, 6] [nM] | IC50 [4, 7] [nM] | Conclusion: activity in ARE-Luciferase assay [4, 8] | IC50 (Androgen Receptor (AR) [3]; [10]) [µM] | also measured
1 | CC(C)(O)C(=O)Nc1ccc([N+](=O)[O-])c(C(F)(F)F)c1 [Hydroxyflutamide] | Active | 135 | 135 | Active |  | AR thermal stabilisation in time-course of compound incubation (Androgen Receptor (AR) [1]; 10 minutes up to 6 hours incubation): No thermal; AR thermal stabilisation / target engagement by compound alone (Androgen Receptor (AR) [1]; no exogenous agonist): did not thermally stabilise AR; AR thermal stabilisation / agonist binding mode by compound alone (Androgen Receptor (AR) [2]; LNCaP cells (AR T877A)): did not show any evidence of binding as an agonist; temporal analysis of target engagement (competition of DHT) (Androgen Receptor (AR) [3]; 1 nM DHT, incubation 10 minutes – 6 hours): increasing competition of DHT from AR over time; effect on total AR (no heat shock) (total cellular AR; [9]): do not reduce total AR
2 | CN1CCN(c2ccc(C(=O)Nc3n[nH]c4ccc(Cc5cc(F)cc(F)c5)cc34)c(NC3CCOCC3)c2)CC1 [Entrectinib] | Inactive | 11200 | 11200 | Active | > 30 | effect on total AR (no heat shock) (total cellular AR; [9]): do not reduce total AR
3 | CN(C)[C@H]1CN(C2CCc3cccc(F)c32)C[C@@H]1c1ccc(N2CCN(S(C)(=O)=O)CC2)cc1 (stereo partly drawn) [A-395] |  |  |  | Inactive |  | IC50 [4, 11]: > 30000 nM
4 | CO[C@@H](C(=O)N1Cc2n[nH]c(NC(=O)c3ccc(N4CCN(C)CC4)cc3)c2C1)c1ccccc1 [Danusertib] | Inactive | 2600 | 2570 | Active | > 30 | 
5 | C[C@]12CCC(=O)C=C1CC[C@@H]1[C@@H]2C(=O)C[C@]2(C)C(=O)CC[C@@H]12 [Andrenosterone] |  |  |  |  |  | EC50 (Androgen Receptor (AR) [1]; agonist alone, read-out: EC50 for in-cell AR target engagement (ITDRF CETSA)): 50.6 nM; compound incubation time at which AR thermal stabilisation is seen (Androgen Receptor (AR) [1]): at least 30 minutes; compound incubation time at which AR thermal stabilisation is seen (Androgen Receptor (AR) [1]; listed as andrenosterone): 30 min; EC50 (Androgen Receptor (AR) [2]; read-out: EC50 for AR thermal stabilisation (ITDRF CETSA), LNCaP cells, agonist alone): 70.1 nM
6 | CCN(c1cc(-c2ccc(CN3CCOCC3)cc2)cc(C(=O)NCc2c(C)cc(C)[nH]c2=O)c1C)C1CCOCC1 [EPZ-6438] | Inactive |  |  | Inactive | > 30 | 
7 | C[C@](O)(COc1ccc(C#N)cc1)C(=O)Nc1ccc(C#N)c(C(F)(F)F)c1 [MK-2866] |  |  |  |  |  | Conclusion: activity in CETSA HT (Androgen Receptor (AR) [3]): Active; temporal analysis of target engagement (competition of DHT) (Androgen Receptor (AR) [3]): increasing competition of DHT from AR over time; IC50 ([4]; Homo sapiens, 24 h, read-out: AR-driven transcription (ARE-Luciferase), 24 h, IC50): 170 nM; IC50 ([4]; Homo sapiens, 24 h, read-out: ARE-Luciferase response pIC50 (converted)): 170 nM; effect on total AR (no heat shock) (total cellular AR): do not reduce total AR
8 | O=C(O)c1ccc(CN2CCC(CN[C@@H]3C[C@H]3c3ccccc3)CC2)cc1 [GSK2879522] |  |  |  | Inactive |  | IC50 [4, 11]: > 30000 nM
9 | CC[C@H](C)n1cc(C)c2c(C(=O)NCc3c(C)cc(C)[nH]c3=O)cc(-c3ccc(N4CCNCC4)nc3)cc21 [GSK-126] |  |  |  | Inactive |  | IC50 [4, 11]: > 30000 nM
10 | Cc1sc2c(c1C)C(c1ccc(Cl)cc1)=N[C@@H](CC(=O)Nc1ccc(O)cc1)c1nnc(C)n1-2 [OTX-015] | Inactive | 214 | 214 | Partial | > 30 | 
11 | CS(=O)(=O)c1ccc(-c2cnc(NCc3ccco3)n3cnnc23)cc1 [EED-226] | Inactive | > 30000 |  | Inactive | > 30 | 
12 | Cc1sc2c(c1C)C(c1ccc(Cl)cc1)=N[C@@H](CC(=O)OC(C)(C)C)c1nnc(C)n1-2 [JQ1] |  |  |  | Partial |  | IC50 [4, 11]: 302 nM
13 | O=C(Nc1ccc([N+](=O)[O-])cc1Cl)c1cc(Cl)ccc1O [Niclosamide] |  | 955 | 955 | Active |  | 
14 | Oc1nc(-c2ccc(C(F)(F)F)cc2)nc2c1CSCC2 [XAV-939] | Inactive | > 30000 |  | Inactive | > 30 | 
15 | CCNC(=O)c1noc(-c2cc(C(C)C)c(O)cc2O)c1-c1ccc(CN2CCOCC2)cc1 [NVP-AUY-922] | Active | 89 | 89.1 | Active |  | AR target engagement (CETSA HT), 2 h, IC50 (Androgen Receptor (AR) [3]; [12]): Reduces total AR; IC50 (Androgen Receptor (AR) [3]; [13]): 0.955 µM; effect on total AR (no heat shock) (total cellular AR; [9]): reduces total AR
16 | C=CCNC1=C2C[C@@H](C)C[C@H](OC)[C@H](O)[C@@H](C)/C=C(\C)[C@H](OC(N)=O)[C@@H](OC)/C=C\C=C(/C)C(=O)NC(=CC1=O)C2=O [Tanespimycin] |  | 3200 | 3240 | Active |  | 
17 | CC(C)c1cc(C(=O)N2Cc3ccc(CN4CCN(C)CC4)cc3C2)c(O)cc1O [Onalespib] | Active | 537 | 537 | Active |  | AR target engagement (CETSA HT), 2 h, IC50 (Androgen Receptor (AR) [3]; [12]): Reduces total AR; IC50 (Androgen Receptor (AR) [3]; [13]): 1.05 µM; effect on total AR (no heat shock) (total cellular AR; [9]): reduces total AR
18 | COc1ccc(/C=C/C(=O)/C=C(O)/C=C/c2ccc(OC)c(OC)c2)cc1OC [ACS-J9] |  |  |  | Active |  | IC50 [4, 11]: > 10000 nM
19 | CO[C@H]1CNC[C@@H](OCC2CCC(F)(F)CC2)[C@@H]1Nc1ncc(-c2cncc(C)c2)c2cc(C)c(=O)[nH]c12 [GSK8814] | Inactive | > 30000 |  | Inactive | > 30 | 
20 | Cc1cc(-c2ncc(CC(=O)Nc3ccc(-c4cnccn4)cn3)cc2C)ccn1 [WNT-974] | Inactive | > 30000 |  | Inactive | > 30 | 
21 | C[C@]12CC[C@H](O)CC1=CC[C@@H]1[C@@H]2CC[C@]2(C)C(c3cccnc3)=CC[C@@H]12 [Abiraterone] | Inactive | > 30000 |  | Inactive | > 30 | 
